Measured values from patent US10351550B2, “Substituted quinazoline compounds and methods of use thereof” (Araxes Pharma LLC, priority 2015, dated 2019).
Marks after values point to notes of the source that are not given here.

Target: T1, KRAS G12C 1-169, his-tagged protein, GDP-loaded (Homo sapiens, UniProt P01116, G12C)
T1 construct: KRAS G12C 1-169, his-tagged protein, GDP-loaded
Test: Biochemical assay: covalent binding (% modification) to KRAS G12C by mass spectrometry
Protocol: Test compounds were prepared as 10 mM stock solutions in DMSO (Fisher cat# BP-231-100). KRAS G12C 1-169, his-tagged protein, GDP-loaded was diluted to 2 μm in buffer (20 mM Hepes, 150 mM NaCl, 1 mM MgCl2). Compounds were tested for activity as follows:
Compounds were diluted to 50× final test concentration in DMSO in 96-well storage plates. Compound stock solutions were vortexed before use and observed carefully for any sign of precipitation. Dilutions were as follow: • 1. For 100 μM final compound concentration, compounds were diluted to 5000 μM (5 μl 10 mM compound stock+5 μl DMSO and mixed well by pipetting. • 2. For 30 μM final compound concentration, compounds were diluted to 1500 μM (3 μl 10 mM compound stock+17 μl DMSO) and mixed well by pipetting. • 3. For 10 μM final compound concentration, compounds were diluted to 500 μM (2 μl 10 mM compound stock+38 μl DMSO) and mixed well by pipetting. 49 μl of the stock protein solution was added to each well of a 96-well PCR plate (Fisher cat#1423027). 1 μl of the diluted 50× compounds were added to appropriate wells in the PCR plate using 12-channel pipettor. Reactions were mixed carefully and thoroughly by pipetting up/down with a 200·1 multi-channel pipettor. […] 5·1 of 2% formic acid (Fisher cat# A117) in DI H2O was then added to each well followed by mixing with a pipette. The plate was then resealed with aluminum seal and stored on dry ice until analyzed as described below.
The above described assays were analyzed by mass spectrometry according to one of the following two procedures:
The MS instrument is set to positive polarity, 2 GHz resolution, and low mass (1700) mode and allowed to equilibrate for 30 minutes. The instrument is then calibrated, switched to acquisition mode and the appropriate method loaded.
After another 30 minute equilibration time, a blank batch (i.e., buffer) is run to ensure equipment is operating properly. The samples are thawed at 37° C. for 10 minutes, briefly centrifuged, and transfer to the bench top. Wells A1 and H12 are spiked with 1 uL 500 uM internal standard peptide, and the plates centrifuged at 2000×g for 5 minutes. The method is then run and masses of each individual well recorded.
The masses (for which integration data is desired) for each well are pasted into the platemap and exported from the analysis. Masses for the internal standards are exported as well. The data at 50 ppm is extracted for the +19 charge state, and identity of well A1 is assigned using the internal standard spike and integrated. Peak data is exported as a TOF list and the above steps are repeated individually, for the +20, 21, 22, 23, 24, and 25 charge states.
The masses and peak intensities of KRAS G12C protein species were measured using a Dionex RSLCnano system (Thermo Scientific) connected to a Q Exactive Plus mass spectrometer (Thermo Scientific).
[…] of sample was each loaded onto a Aeris™ 3.6 μm WIDEPORE C4 200 Å, LC Column 50×2.1 mm column maintained at 40° C. at a flow rate of 600 μl min^1 with 20% Solvent A (0.1% formic acid in H2O) and 80% Solvent B (0.1% formic acid in acetonitrile). The liquid chromatography conditions were 20% solvent B for 1 min, 20% to 60% solvent B for 1.5 min, 60% to 90% solvent for 0.5 min, 90% solvent B for 0.2 min, 90% to 20% solvent B for 0.2 min, and then equilibrated for 1.6 min before the following sample injection. The flow rate was maintained at 600 μl min^1 throughout the sample analysis.
The mass spectrometer was operated in profile mode at a resolution of 17500, 5 microscans, using 50 msec max injection time and an AGC target of 1e6, and a full mass range from 800-1850 m/z was recorded. The HCD trapping gas was optimized for maximum sensitivity for intact proteins. The ionization method was electrospray ionization, which used a spray voltage of 4 kV, sheath gas flow set to 50 au, auxiliary gas flow set to 10 au and sweep gas flow set to 1 au. […]

[1] = binding activity determined at 2 hours
[2] = binding activity determined at 4 hours
[3] = binding activity determined at 6 hours

Row | Compound | Binding % [1] | Binding % [2] | Binding % [3] | other results
1 | C=CC(=O)N1CC(n2cnc3c(Cl)c(-c4cc(O)cc5ccccc45)cc(O)c3c2=O)C1 [Compound 14, 3-(1-acryloylazetidin-3-yl)-8-chloro-5-hydroxy-7-(3-hydroxynaphthalen-1-yl)quinazolin-4(3H)-one] | +++ (+++ indicates binding activity 50% or greater) | – | – | –
2 | C=CC(=O)N1CC(n2cnc3c(F)c(-c4cc(O)ccc4Cl)c(Cl)cc3c2=O)C1 [Compound 6, 3-(1-acryloylazetidin-3-yl)-6-chloro-7-(2-chloro-5-hydroxyphenyl)-8-fluoroquinazolin-4(3H)-one] | ++; (++ indicates binding activity from 5% up to 50%) | +++^† (+++ indicates binding activity 50% or greater) | – | –
3 | C=CC(=O)N1CC(n2cnc3cc(-c4c(O)cccc4F)ccc3c2=O)C1 [Compound 5, 3-(1-acryloylazetidin-3-yl)-7-(2-fluoro-6-hydroxyphenyl) quinazolin-4(3H)-one] | – | – | ++^‡ (++ indicates binding activity from 5% up to 50%) | –
4 | C=CC(=O)N1CC(n2cnc3c(F)cc(-c4ccccc4O)cc3c2=O)C1 [Compound 9, 3-(1-acryloylazetidin-3-yl)-8-fluoro-6-(2-hydroxyphenyl) quinazolin-4(3H)-one] | – | – | +^‡ (+ indicates binding activity up to 5%) | –
5 | C=CC(=O)N1CC(n2cnc3c(F)c(-c4cc(O)cc5ccccc45)c(Cl)cc3c2=O)C1 [Compound 7, 3-(1-acryloylazetidin-3-yl)-6-chloro-8-fluoro-7-(3-hydroxynaphthalen-1-yl)quinazolin-4(3H)-one] | +++; (+++ indicates binding activity 50% or greater) | – | +++^‡ (+++ indicates binding activity 50% or greater) | –
6 | C=CC(=O)N1CC(n2cnc3c(F)c(-c4c(O)cccc4F)c(Cl)cc3c2=O)C1 [Compound 4, 3-(1-acryloylazetidin-3-yl)-6-chloro-8-fluoro-7-(2-fluoro-6-hydroxyphenyl)quinazolin-4(3H)-one] | – | ++^† (++ indicates binding activity from 5% up to 50%) | – | –
7 | C=CC(=O)NC1CC(n2cnc3c(F)c(-c4c(O)cccc4F)c(Cl)cc3c2=O)C1 (stereo not shown) [Compound 2, N-(3-(6-chloro-8-fluoro-7-(2-fluoro-6-hydroxyphenyl)-4-oxoquinazolin-3(4H)-yl)cyclobutyl)acrylamide] | – | ++^† (++ indicates binding activity from 5% up to 50%) | – | covalently bind to KRAS G12C, extent (% of protein in the well covalently bound to test compound) (time and concentration not given): greater than 30%
8 | C=CC(=O)N1CC(n2cnc3c(Cl)c(-c4cc(O)cc5ccccc45)c(N)cc3c2=O)C1 [Compound 12, 3-(1-acryloylazetidin-3-yl)-6-amino-8-chloro-7-(3-hydroxynaphthalen-1-yl)quinazolin-4(3H)-one] | ++ (++ indicates binding activity from 5% up to 50%) | – | – | –
9 | C=CC(=O)N1CCCC(n2cnc3c(F)c(-c4c(O)cccc4F)c(Cl)cc3c2=O)C1 (stereo not shown) [Compound 1, 3-(1-acryloylpiperidin-3-yl)-6-chloro-8-fluoro-7-(2-fluoro-6-hydroxyphenyl)quinazolin-4(3H)-one] | – | ++^† (++ indicates binding activity from 5% up to 50%) | – | –
10 | C=CC(=O)N1CC(n2cnc3c(F)c(-c4c(C)ccc5cn[nH]c45)c(Cl)cc3c2=O)C1 [Compound 8, 3-(1-acryloylazetidin-3-yl)-6-chloro-8-fluoro-7-(6-methyl-1H-indazol-7-yl)quinazolin-4(3H)-one] | – | – | ++^‡ (++ indicates binding activity from 5% up to 50%) | –
11 | C=CC(=O)Nc1cnc2c(F)c(-c3c(O)cccc3F)c(Cl)cc2c1N1CCN(C(C)=O)CC1 [Compound 3, N-(4-(4-acetylpiperazin-1-yl)-6-chloro-8-fluoro-7-(2-fluoro-6-hydroxyphenyl)quinolin-3-yl)acrylamide] | – | ++^† (++ indicates binding activity from 5% up to 50%) | – | –
12 | C=CC(=O)N1CC(n2cnc3c(Cl)c(-c4cc(O)cc5ccccc45)c(F)cc3c2=O)C1 [Compound 10, 3-(1-acryloylazetidin-3-yl)-8-chloro-6-fluoro-7-(3-hydroxynaphthalen-1-yl)quinazolin-4(3H)-one] | +++; (+++ indicates binding activity 50% or greater) | – | +++^‡ (+++ indicates binding activity 50% or greater) | –
